According to publication PMC4070431 (Pulmonary pharmacology & therapeutics, 2012):
Several values for one entry are separate records, joined by “and”; a condition that tells them apart may be missing. Equal entries are not always repeated. Where two headings read alike, the source gives them in different places. Positions of bridges follow the written chain, without caps; N, C: chain ends. Non-standard residues stand in square brackets, D forms with d. Residues, ends and D or L forms follow the SMILES beside them. *: point of attachment. X1 = N=C(N)NCCC[C@H]1C(=O)N[C@H](C(N)=O)CN1*; dNle = CCCC[C@@H](N)C(=O)O; Heptanoyl = CCCCCCC(=O)*

How the values were obtained:
[1] = cited from earlier work
human NPR-B = target: T1, human NPR-B (Homo sapiens, UniProt P20594); assay: cGMP generation in HEK293 cells expressing receptor; type: cell-based; settings: for Emax, cGMP generation, hNPR-B: mean ± SEM; for Effect on cGMP generation in hNPR-B functional assay: concentrations up to 10 µM
T1 sequence (P20594 23-1047): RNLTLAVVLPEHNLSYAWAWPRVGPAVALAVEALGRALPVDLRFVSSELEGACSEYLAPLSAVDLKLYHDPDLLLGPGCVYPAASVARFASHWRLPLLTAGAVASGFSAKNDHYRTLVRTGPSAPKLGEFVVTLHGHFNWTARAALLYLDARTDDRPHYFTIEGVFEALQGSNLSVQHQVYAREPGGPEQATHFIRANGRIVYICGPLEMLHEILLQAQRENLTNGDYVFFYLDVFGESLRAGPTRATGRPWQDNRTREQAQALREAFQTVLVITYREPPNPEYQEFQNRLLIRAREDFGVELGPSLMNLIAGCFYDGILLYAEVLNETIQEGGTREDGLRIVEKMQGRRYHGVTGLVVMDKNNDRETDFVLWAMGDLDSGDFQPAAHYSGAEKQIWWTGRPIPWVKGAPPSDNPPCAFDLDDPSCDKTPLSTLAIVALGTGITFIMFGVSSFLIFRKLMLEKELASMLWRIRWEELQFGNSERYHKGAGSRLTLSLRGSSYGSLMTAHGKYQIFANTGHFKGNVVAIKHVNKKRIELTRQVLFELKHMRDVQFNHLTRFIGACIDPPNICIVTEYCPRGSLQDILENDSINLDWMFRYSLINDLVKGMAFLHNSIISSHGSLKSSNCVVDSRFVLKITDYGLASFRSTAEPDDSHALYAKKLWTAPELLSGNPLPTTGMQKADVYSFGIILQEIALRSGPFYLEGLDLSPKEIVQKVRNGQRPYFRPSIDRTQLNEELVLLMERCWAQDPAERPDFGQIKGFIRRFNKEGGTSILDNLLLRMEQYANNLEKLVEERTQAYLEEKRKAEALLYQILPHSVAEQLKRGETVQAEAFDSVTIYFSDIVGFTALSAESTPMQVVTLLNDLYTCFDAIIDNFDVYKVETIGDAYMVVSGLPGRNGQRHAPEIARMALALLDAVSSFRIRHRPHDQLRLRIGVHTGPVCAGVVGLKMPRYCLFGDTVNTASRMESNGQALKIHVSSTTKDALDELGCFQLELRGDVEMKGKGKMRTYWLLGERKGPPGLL

[2] = test system: 75 diverse molecular targets; assay: CEREP standard profiling screen; type: binding; settings: 1 µM
kappa opioid receptor = assay: CEREP profiling screen and follow-up Ki; type: binding; settings: read-out: Ki, kappa; follow-up study
[3] = target: non-selective somatostatin receptor (sst); assay: CEREP profiling screen and follow-up Ki; type: binding; settings: read-out: Ki, sst; follow-up study
[4] = test system: bronchoconstrictor response to aerosolized methacholine; assay: Methacholine-induced bronchoconstriction in anaesthetized guinea pigs; type: in vivo, guinea pig; settings: for Maximum inhibition of methacholine bronchoconstrictor response: 1000 µg/kg i.t., 15-min pretreatment, n = 6, mean ± SEM; for Inhibition of methacholine bronchoconstriction at 60 min: i.t., 60-min pretreatment, all doses
[5] = test system: mean arterial blood pressure and heart rate; assay: Cardiovascular parameters in anaesthetized guinea pigs; settings: i.t.; PL-3994 1–1000 µg/kg, salbutamol 1000 µg/kg; n = 6
rat trachea = assay: Relaxation of carbachol-precontracted rat trachea; settings: 100 µM; carbachol 1 µM; n = 6; mean ± SEM

For `CC[C@H](C)[C@@H]1NC(=O)[C@H](CCCNC(=N)N)NC(=O)[C@H](CC(=O)O)NC(=O)[C@H](CC(C)C)NC(=O)[C@H](CCCCN)NC(=O)[C@H](CC(C)C)NC(=O)CNC(=O)[C@H](Cc2ccccc2)NC(=O)[C@@H](NC(=O)CNC(=O)[C@H](CCCCN)NC(=O)[C@H](CO)NC(=O)[C@H](CC(C)C)NC(=O)CN)CSSC[C@@H](C(=O)O)NC(=O)CNC(=O)[C@H](CC(C)C)NC(=O)CNC(=O)[C@H](CO)NC(=O)[C@H](CCSC)NC(=O)[C@H](CO)NC(=O)CNC1=O` [CNP, C-type natriuretic peptide], the Human plasma half-life ([1]; ref [10]) is listed as “about 2 min”.
In the case of `CC[C@H](C)[C@@H]1NC(=O)[C@H](CCCNC(=N)N)NC(=O)[C@H](CC(=O)O)NC(=O)[C@H](CCSC)NC(=O)[C@H](CCCNC(=N)N)NC(=O)CNC(=O)CNC(=O)[C@H](Cc2ccccc2)NC(=O)[C@@H](NC(=O)[C@H](CO)NC(=O)[C@H](CO)NC(=O)[C@H](CCCNC(=N)N)NC(=O)[C@H](CCCNC(=N)N)NC(=O)[C@H](CC(C)C)NC(=O)[C@@H](N)CO)CSSC[C@@H](C(=O)N[C@@H](CC(N)=O)C(=O)N[C@@H](CO)C(=O)N[C@@H](Cc2ccccc2)C(=O)N[C@@H](CCCNC(=N)N)C(=O)N[C@@H](Cc2ccc(O)cc2)C(=O)O)NC(=O)CNC(=O)[C@H](CC(C)C)NC(=O)CNC(=O)[C@H](CO)NC(=O)[C@H](CCC(N)=O)NC(=O)[C@H](C)NC(=O)CNC1=O` [hANP, atrial natriuretic peptide], the “Emax, cGMP generation, hNPR-B” value (human NPR-B) is listed as 6 ± 0.8 % hCNP and the Human plasma half-life ([1]; human, in vivo) is listed as “about 2 min”.
For `CCCCCCC(=O)N[C@H]1CSSC[C@@H](C(=O)N[C@@H](Cc2ccc(O)cc2)C(=O)N2C[C@@H](C(N)=O)NC(=O)[C@@H]2CCCNC(=N)N)NC(=O)[C@H](CO)NC(=O)[C@H]([C@@H](C)CC)NC(=O)[C@H](CCCNC(=N)N)NC(=O)[C@H](CC(=O)O)NC(=O)[C@@H](CCCC)NC(=O)[C@H](CCCNC(=N)N)NC(=O)CNC(=O)[C@@H](C)NC(=O)[C@H](Cc2ccccc2)NC(=O)[C@H](Cc2c[nH]cn2)NC1=O` [PL-3994, Hept-cyclo(Cys-His-Phe-D-Ala-Gly-Arg-D-Nle-Asp-Arg-Ile-Ser-Cys)-Tyr-[Arg-mimetic]-NH2] (Heptanoyl-CHF[dA]GR[dNle]DRISCY-X1; disulfide 1-12), the “EC50, cGMP generation, hNPR-B” value (human NPR-B; HEK293 cells, 0.5 mM IBMX, 15 min, cGMP HTRF) was “Not calculable”, the “Effect on cGMP generation in hNPR-B functional assay” value (human NPR-B) was “without effect” and the “Effect against 75 diverse molecular targets” value [2] was “without significant effect”. For the same compound, the Ki (kappa opioid receptor) was 0.88 µM, the Ki [3] was 4.2 µM and the “Inhibition of methacholine bronchoconstriction at 120 min” value ([4]; 10 µg/kg and 100 µg/kg i.t.) was “extended to 120 min post-administration, although it was reduced”. For the same compound, the “Inhibition of methacholine bronchoconstriction at 240 min” value ([4]; 10 µg/kg and 100 µg/kg i.t., 240-min pretreatment) was “absent”, the “Maximum inhibition of methacholine bronchoconstrictor response” value [4] was 70% and the “Inhibition of methacholine bronchoconstriction at 60 min” value [4] was “maintained”. The “Effect on heart rate compared to baseline” value [5] was “no significant effect” and the “Effect on mean arterial blood pressure compared to baseline” value [5] was “no significant effect”.
In the case of `CC(C)(C)NCC(O)c1ccc(O)c(CO)c1` (stereo not drawn) [salbutamol], the “Relaxation of carbachol-precontracted rat trachea” value (rat trachea) is reported as 70.0 ± 10.4 % relaxation, the “Maximum inhibition of methacholine bronchoconstrictor response” value [4] is reported as 87 ± 2% and 87% and the “Inhibition of methacholine bronchoconstriction at 60 min” value [4] is reported as “maintained”. The “Effect on heart rate compared to baseline” value [5] was “no significant effect” and the “Effect on mean arterial blood pressure compared to baseline” value [5] was “no significant effect”.
For `CC[C@H](C)[C@@H]1NC(=O)[C@H](CCCNC(=N)N)NC(=O)[C@H](CC(=O)O)NC(=O)[C@H](CCSC)NC(=O)[C@H](CCCCN)NC(=O)[C@H](CCCNC(=N)N)NC(=O)CNC(=O)[C@H](Cc2ccccc2)NC(=O)[C@@H](NC(=O)CNC(=O)[C@H](CO)NC(=O)CNC(=O)[C@H](CCC(N)=O)NC(=O)[C@@H](NC(=O)[C@H](CCSC)NC(=O)[C@H](CCCCN)NC(=O)[C@@H]2CCCN2C(=O)[C@@H](N)CO)C(C)C)CSSC[C@@H](C(=O)N[C@@H](CCCCN)C(=O)N[C@H](C(=O)N[C@@H](CC(C)C)C(=O)N[C@@H](CCCNC(=N)N)C(=O)N[C@@H](CCCNC(=N)N)C(=O)N[C@@H](Cc2c[nH]cn2)C(=O)O)C(C)C)NC(=O)CNC(=O)[C@H](CC(C)C)NC(=O)CNC(=O)[C@H](CO)NC(=O)[C@H](CO)NC(=O)[C@H](CO)NC(=O)[C@H](CO)NC1=O` [hBNP, brain natriuretic peptide], the “Effect on cGMP generation in hNPR-B functional assay” value (human NPR-B) was “no functional activity” and the “Emax, cGMP generation, hNPR-B” value (human NPR-B) was 9 ± 1 % hCNP.
